Converted amounts (≈) assume the structure as drawn. The source made the active and inactive calls. The rule behind the calls is not given here.
How the values were obtained:
Escherichia coli [1] = experiment: Antibacterial activity against Escherichia coli assessed as reduction in bacterial burden at 2 to 4 times of MIC measured within 5 hrs by time-dependent kinetics assay; type: functional, organism-based
Calf thymus DNA [2] = experiment: Binding affinity to calf thymus DNA assessed as hypochromism by spectroscopic analysis; type: nucleic-acid assay; conditions: Bos taurus
Staphylococcus aureus [3] = experiment: Anti-biofilm effect in methicillin-resistant Staphylococcus aureus N315 assessed as biofilm destruction rate at 6 times of MIC; type: functional
Acinetobacter baumannii [4] = experiment: Antibacterial activity against Acinetobacter baumannii assessed as inhibition of bacterial growth measured after 24 hrs incubation; type: functional
Pseudomonas aeruginosa [5] = experiment: Potency index, ratio of norfloxacin MIC to test compound MIC for antibacterial activity against Pseudomonas aeruginosa ATCC 27853 assessed as inhibition of bacterial growth measured after 24 hrs incubation; type: functional
Staphylococcus aureus [6] = experiment: Induction of lipid peroxidation in methicillin-resistant Staphylococcus aureus N315 assessed as malondialdehyde (MDA) level production; type: functional, organism-based
Escherichia coli [7] = experiment: Antibacterial activity against Escherichia coli ATCC 25922 assessed as inhibition of bacterial growth measured after 24 hrs incubation; type: functional
Calf thymus DNA [8] = experiment: Binding affinity to calf thymus DNA assessed as DNA intercalation with drug by […] assay; type: nucleic-acid assay; conditions: Bos taurus
[9] = Hemolytic activity in human red blood cells assessed as hemolysis rate at 512 ug/ml relative to control; type: toxicity, cell-based, Erythrocyte; conditions: red blood cells (erythrocytes), at 512 µg/mL, read-out: Activity
Staphylococcus aureus [10] = experiment: Antibacterial activity against Staphylococcus aureus ATCC 29213 assessed as inhibition of bacterial growth measured after 24 hrs incubation; type: functional
Staphylococcus aureus [11] = experiment: Antibacterial activity against methicillin-resistant Staphylococcus aureus N315 assessed as inhibition of bacterial growth measured after 24 hrs incubation; type: functional
Escherichia coli [12] = experiment: Potency index, ratio of norfloxacin MIC to test compound MIC for antibacterial activity against Escherichia coli ATCC 25922 assessed as inhibition of bacterial growth measured after 24 hrs incubation; type: functional
Pseudomonas aeruginosa [13] = experiment: Potency index, ratio of norfloxacin MIC to test compound MIC for antibacterial activity against Pseudomonas aeruginosa assessed as inhibition of bacterial growth measured after 24 hrs incubation; type: functional
Enterococcus faecalis = experiment: Antibacterial activity against Enterococcus faecalis assessed as inhibition of bacterial growth measured after 24 hrs incubation; type: functional
Escherichia coli [14] = experiment: Induction of lipid peroxidation in Escherichia coli assessed as malondialdehyde (MDA) level production; type: functional, organism-based
Staphylococcus aureus [15] = experiment: Induction of ROS production in methicillin-resistant Staphylococcus aureus N315 assessed as fluorescence intensity at 2 times of MIC by DCFH-DA (dichlorofluorescin diacetate) probe based assay
Staphylococcus aureus [16] = experiment: Anti-biofilm effect in methicillin-resistant Staphylococcus aureus N315 assessed as biofilm destruction by measuring reduced biofilm content at MIC; type: functional
Staphylococcus aureus [17] = experiment: Antibacterial activity against methicillin-resistant Staphylococcus aureus N315 assessed as resistance development measured after 18 generations; type: functional, organism-based
Klebsiella pneumoniae [18] = experiment: Potency index, ratio of norfloxacin MIC to test compound MIC for antibacterial activity against Klebsiella pneumonia assessed as inhibition of bacterial growth measured after 24 hrs incubation; type: functional
Escherichia coli [19] = experiment: Reduction in metabolic activity in Escherichia coli at 6 times of MIC by Alamar Blue assay relative to control; type: functional; design: scale not given: the % may be the effect or the level left
Staphylococcus aureus [20] = experiment: Potency index, ratio of norfloxacin MIC to test compound MIC for antibacterial activity against Staphylococcus aureus ATCC 25923 assessed as inhibition of bacterial growth measured after 24 hrs incubation; type: functional
Escherichia coli [21] = experiment: Antibacterial activity against Escherichia coli assessed as reduction in bacterial burden at 2 to 4 times of MIC measured upto 7 hrs by time-dependent kinetics assay; type: functional, organism-based
Staphylococcus aureus [22] = experiment: Potency index, ratio of norfloxacin MIC to test compound MIC for antibacterial activity against Staphylococcus aureus ATCC 29213 assessed as inhibition of bacterial growth measured after 24 hrs incubation; type: functional
Escherichia coli [23] = experiment: Induction of ROS production in Escherichia coli assessed as fluorescence intensity by DCFH-DA (dichlorofluorescin diacetate) probe based assay; type: functional, organism-based
Staphylococcus aureus [24] = experiment: Antibacterial activity against methicillin-resistant Staphylococcus aureus N315 assessed as resistance development by measuring compound concentration required to inhibit measured after 18 generations; type: functional
Escherichia coli [25] = experiment: Anti-biofilm effect in Escherichia coli assessed as inhibition of biofilm formation by measuring reduction in exo-polysaccharide content at 6 times of MIC relative to control; type: functional
Staphylococcus aureus [26] = experiment: Antibacterial activity against methicillin-resistant Staphylococcus aureus N315 assessed as reduction in bacterial burden at 2 to 4 times of MIC measured within 5 hrs by time-dependent kinetics assay; type: functional, organism-based
Escherichia coli [27] = experiment: Induction of lipid peroxidation in Escherichia coli assessed as malondialdehyde (MDA) level production at 4 time of MIC; type: functional, organism-based
Escherichia coli [28] = experiment: Antibacterial activity against Escherichia coli assessed as resistance development measured after 11 generations; type: functional, organism-based
Escherichia coli [29] = experiment: Antibacterial activity against Escherichia coli assessed as resistance development measured after 18 generations; type: functional, organism-based
Staphylococcus aureus [30] = experiment: Reduction in metabolic activity in methicillin-resistant Staphylococcus aureus N315 at 6 times of MIC by Alamar Blue assay relative to control; type: functional; design: scale not given: the % may be the effect or the level left
Staphylococcus aureus [31] = experiment: Anti-biofilm effect in methicillin-resistant Staphylococcus aureus N315 assessed as inhibition of biofilm formation by measuring reduction in exo-polysaccharide content at 6 times of MIC relative to control; type: functional
Escherichia coli [32] = experiment: Potency index, ratio of norfloxacin MIC to test compound MIC for antibacterial activity against Escherichia coli assessed as inhibition of bacterial growth measured after 24 hrs incubation; type: functional
Staphylococcus aureus [33] = experiment: Potency index, ratio of norfloxacin MIC to test compound MIC for antibacterial activity against Staphylococcus aureus assessed as inhibition of bacterial growth measured after 24 hrs incubation; type: functional
Staphylococcus aureus [34] = experiment: Reduction in metabolic activity in methicillin-resistant Staphylococcus aureus N315 by Alamar Blue assay; type: functional, organism-based
Staphylococcus aureus [35] = experiment: Induction of lipid peroxidation in methicillin-resistant Staphylococcus aureus N315 assessed as malondialdehyde (MDA) level production at 4 time of MIC; type: functional, organism-based
Calf thymus DNA [36] = experiment: Binding affinity to calf thymus DNA by acridine orange staining based competitive binding assay; type: nucleic-acid assay; conditions: Bos taurus
Escherichia coli [37] = experiment: Antibacterial activity against Escherichia coli assessed as inhibition of bacterial growth measured after 24 hrs incubation; type: functional
Acinetobacter baumannii [38] = experiment: Potency index, ratio of norfloxacin MIC to test compound MIC for Antibacterial activity against Acinetobacter baumannii assessed as inhibition of bacterial growth measured after 24 hrs incubation; type: functional
Klebsiella pneumoniae [39] = experiment: Antibacterial activity against Klebsiella pneumonia assessed as inhibition of bacterial growth measured after 24 hrs incubation; type: functional
[40] = Hemolytic activity in human red blood cells assessed as hemolysis rate at 64 ug/ml relative to control; type: toxicity, cell-based, Erythrocyte; conditions: red blood cells (erythrocytes), at 64 µg/mL, read-out: Activity
Cell membrane = experiment: Induction of cytoplasmic membrane integrity loss in methicillin-resistant Staphylococcus aureus N315 assessed as increase in fluorescence intensity at 0.5 to 6 times of MIC by Propidium iodide method; type: cell membranes
Staphylococcus aureus [41] = experiment: Antibacterial activity against methicillin-resistant Staphylococcus aureus N315 assessed as resistance development measured after 10 generations; type: functional, organism-based
Escherichia coli [42] = experiment: Antibacterial activity against Escherichia coli assessed as resistance development by measuring compound concentration required to inhibit measured after 18 generations; type: functional

For `CCOC(=O)Cn1cc(/C=C(\C#N)C(=O)N2CCN(c3cc4c(cc3F)c(=O)c(C(=O)O)cn4CC)CC2)c2ccccc21`, which Activity (Escherichia coli [1]) is on record?
The Activity was “Active”.

What about the Activity (Calf thymus DNA [2]) of the same compound?
Its Activity is “Active”.

And the “inhibition (INH)” value (Staphylococcus aureus [3])?
The value was >60%.

And the MIC (Acinetobacter baumannii [4])?
Its MIC is 0.25 mg/L (≈ 0.417 µM).

And the Ratio (Pseudomonas aeruginosa [5])?
Its Ratio is 1.

What about the Activity (Staphylococcus aureus [6]) of the same compound?
Its Activity is “Dose-Dependent Effect”.

What about the MIC (Escherichia coli [7]) of the same compound?
Its MIC is 0.5 mg/L (≈ 0.834 µM).

What about the Activity (Calf thymus DNA [8]) of the same compound?
The Activity was “Active”.

And the hemolysis at 512 ug/ml [9]?
The hemolysis at 512 ug/ml was < 5%.

What about the MIC (Staphylococcus aureus [10]) of the same compound?
The MIC was 0.25 mg/L (≈ 0.417 µM).

What about the MIC (Staphylococcus aureus [11]) of the same compound?
The MIC was 0.25 mg/L (≈ 0.417 µM).

And the Ratio (Escherichia coli [12])?
The Ratio was 1.

What about the Ratio (Pseudomonas aeruginosa [13]) of the same compound?
The Ratio was 1.

What about the MIC (Enterococcus faecalis) of the same compound?
Its MIC is 0.25 mg/L (≈ 0.417 µM).

And the Activity (Escherichia coli [14])?
The Activity was “Dose-Dependent Effect”.

And the Activity (Staphylococcus aureus [15])?
The Activity was >50%.

What about the “inhibition (INH)” value (Staphylococcus aureus [16]) of the same compound?
Its value is 68.8%.

What about the Activity (Staphylococcus aureus [17]) of the same compound?
Its Activity is “Active”.

And the Ratio (Klebsiella pneumoniae [18])?
Its Ratio is 1.

What about the Activity (Escherichia coli [19]) of the same compound?
The Activity was >50%.

What about the Ratio (Staphylococcus aureus [20]) of the same compound?
Its Ratio is 1.

And the Activity (Escherichia coli [21])?
Its Activity is “Active”.

What about the Ratio (Staphylococcus aureus [22]) of the same compound?
The Ratio was 1.

And the Activity (Escherichia coli [23])?
Its Activity is “Dose-Dependent Effect”.

What about the MIC (Staphylococcus aureus [24]) of the same compound?
The MIC was 64 mg/L (≈ 107 µM).

And the “inhibition (INH)” value (Escherichia coli [25])?
The value was <50%.

And the Activity (Staphylococcus aureus [26])?
Its Activity is “Active”.

And the Activity (Escherichia coli [27])?
Its Activity is “Active”.

And the Activity (Escherichia coli [28])?
Its Activity is “inactive”.

What about the Activity (Escherichia coli [29]) of the same compound?
Its Activity is “Active”.

And the Activity (Staphylococcus aureus [30])?
Its Activity is >50%.

And the “inhibition (INH)” value (Staphylococcus aureus [31])?
The value was <50%.

What about the Ratio (Escherichia coli [32]) of the same compound?
The Ratio was 1.

And the Ratio (Staphylococcus aureus [33])?
The Ratio was 1.

And the Activity (Staphylococcus aureus [34])?
Its Activity is “Dose-Dependent Effect”.

And the Activity (Staphylococcus aureus [35])?
The Activity was “Active”.

What about the Activity (Calf thymus DNA [36]) of the same compound?
Its Activity is “Active”.

What about the MIC (Escherichia coli [37]) of the same compound?
The MIC was 0.25 mg/L (≈ 0.417 µM).

What about the Ratio (Acinetobacter baumannii [38]) of the same compound?
Its Ratio is 1.

And the MIC (Klebsiella pneumoniae [39])?
Its MIC is 0.5 mg/L (≈ 0.834 µM).

And the hemolysis at 64 ug/ml [40]?
The hemolysis at 64 ug/ml was < 5%.

What about the Activity (Cell membrane) of the same compound?
The Activity was “Active”.

What about the Activity (Staphylococcus aureus [41]) of the same compound?
Its Activity is “inactive”.

What about the MIC (Escherichia coli [42]) of the same compound?
Its MIC is 32 mg/L (≈ 53.4 µM).
